Results as given in patent US20140341812A1, “BETA-AMYLOID PET IMAGING AGENTS” (The United States of America, as represented by the …, priority 2006, published 2014).

biological target: amyloid (Homo sapiens, UniProt P05067); test: not given; settings: PET, patients with AD vs healthy people; cited from earlier work
Sequence (P05067 672-713 limits assumed): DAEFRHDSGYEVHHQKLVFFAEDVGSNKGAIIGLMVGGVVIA
Sequence (P05067 672-711 limits assumed): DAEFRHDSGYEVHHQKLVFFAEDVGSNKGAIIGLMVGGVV

**Q.** With `CNc1ccc(-c2nc3ccc(O)cc3s2)cc1` [carbon-11-labelled-PIB, 6-hydroxy-2-(4′-methylaminophenyl)benzothiazole] as the molecule, how does the “binding in the brains of patients with AD compared with healthy people” value read?
**A.** Its value is “more binding in the brains of patients with AD than in those of healthy people”.

**Q.** For `CC(=C(C#N)C#N)c1ccc2cc(N(C)CC[18F])ccc2c1` [fluorine-18-labelled-FDDNP, 2-(1-{6-[(2-[^18F]fluoroethyl)(methyl)amino]-2-naphthyl}ethylidene)malononitrile], which “binding in the brains of patients with AD compared with healthy people” value is on record?
**A.** Its value is “more binding in the brains of patients with AD than in those of healthy people”.

test system: not given; test: not given; settings: after intravenous injection into rodent or monkey; reported in Cai et al., J. Med. Chem. 2004; cited from earlier work

**Q.** With `CN(CCF)c1ccc(-c2cn3cc(I)ccc3n2)cc1` [[^18F]FEM-IMPY, N-(2-fluoroethyl)-4-(6-iodo-H-imidazo[1,2-A]pyridin-2-yl)-N-methylbenzeneamine] as the molecule, how does the “SUV (standardized uptake value) in brain” value read?
**A.** The value was “about 160 % I.D.kg/g”.

**Q.** Which “SUV (standardized uptake value) in brain” value does the source give for `CN(CCC[18F])c1ccc(-c2cn3cc(I)ccc3n2)cc1` [[^18F]FPM-IMPY] here?
**A.** The value was “about 160 % I.D.kg/g”.

biological target: T1, beta-amyloid plaques in AD brain tissue (Homo sapiens, UniProt P05067); test: In vitro binding assay: competitive displacement of [3H]6-OH-BTA-1 from isolated human AD amyloid plaques; settings: [3H]6-OH-BTA-1 as reference radioligand; isolated human AD amyloid plaques; Table 4
T1 construct: gauged from the concentration of Aβ1-40 and Aβ1-42 monomers; from tissue; host or cells: postmortem human AD brain grey matter; plaques isolated by SDS/sucrose centrifugation and collagenase/DNase digestion
T1 sequence (P05067 672-713 limits assumed): as the sequence (P05067 672-713 limits assumed) above
T1 sequence (P05067 672-711 limits assumed): as the sequence (P05067 672-711 limits assumed) above
Method: Isolation of human AD amyloid. Postmortem brain […] were obtained from a confirmed AD patient. Pre- and postmortem consent was obtained from next of kin, and brains were removed at autopsy, sectioned and frozen at −70° C. Bags of brain tissue were removed from the freezer to a −20° C. freezer one day before, and then placed on ice 3 h before the experiment. While working on ice, the brain tissue was cut into small sections, and meningies from outer layer of cortex and from fissures between the lobes of the gray matter was removed. After removing the white matter, the grey matter were chopped into small pieces and placed into plastic bags. The tissue was stored in −70° C. freezer for further use.
In a typical isolation, 60 g of brain tissue were used. Initially, an equal volume of 1% SDS was added to homogenize. More 1% SDS was added later until 200 mL. The mixture was vortexed, distributed evenly among 10 Beckman ultracentrifuge tubes, and centrifuged by a Coulter type 55.2 Ti ultracentrifuge rotor using RPM: 40,000; G force; 180,000; temp: 4° C.; time: 30 min. The collected bottom pellets were further homogenized and centrifuged twice more as described above using 50 mL and 20 mL of 1% SDS each, and finally in 20 mL 1.2 M sucrose. The supernatant along the top pellet was discarded. The pellets at the bottom were homogenized and centrifuged in 20 mL 1.9 M sucrose. The top pellets were collected using a cell scrapper, and the bottom pellets were discarded. The collected top pellets were homogenized and centrifuged using 20 mL deionized water. The bottom pellets were further homogenized and centrifuged using 1.3 M sucrose solution into one centrifuge tube. The bottom pellets were homogenized and centrifuged using 20 mL deionized water. The collected pellets were homogenized in 30 mL of 50 mM Tris-HCl, pH 8.0, 2 mM CaCl2. Collagenase CLS3 (120 mg) and DNAase I (10-15 mg) were added. The mixture was vortexed and incubated for 24-56 hrs at 37° C. in a water bath with shaking. After incubation, the suspension was filtered through 41 μm Milllpore filter paper. The collected filtrate was centrifuged and the bottom pellets were homogenized and centrifuged one more time using the Tris-HCl solution. The supernatant was discarded, and the pellets were homogenized and centrifuged using 10 mL 1.9 M sucrose. The top pellet and the 1.9M sucrose layer were transferred to a new tube (this is to remove heavy particles such as metals and salts). Deionized water (40 mL) was added. After homogenization and centrifugation, the collected pellets were put into 500 μL of deionized water to form a homogeneous suspension. It was stored in a refrigerator or freezer for further use.
The amyloid suspension prepared above was diluted by a factor of 40,000 to 50,000 in PBS, and 800 μL suspension was used in each tube. […] Cold 6-OH-BTA-1 or other displacer was dissolved in ethanol to result in a stock solution of 1×10^−3 M, which was further diluted using PBS or ethanol to result in solutions with concentrations ranging from 1×10^−5 to 10^−10 M, and 100 μL was used in each tube. After assembly, the tubes were vortexed, and incubated for 3 hrs at room temperature. After separation using a cell harvester, the filter paper (GF/B filter paper pretreated with 0.5% polyimine solution) was washed with 10% ethanol in PBS (3×3 mL). The filters were placed into 20 mL glass vials and 10 mL scintillation fluid each was added. After overnight incubation, the samples were counted. The data were analyzed using GraphPad Prism 4 or KaleidaGraph 3.6.
Isolated plaques were used in developing an in vitro binding assay. Tritiated-6-OH-BTA-1 was selected as the reference radioligand based on its use in human PET imaging and high affinity.^28 Displacement curves were created using non-radioactive 6-OH-BTA-1 and other novel ligands.

**Q.** With `CN(CCF)c1ccc(-c2cn3cc(I)ccc3n2)cc1` [Ligand L2, N-(2-fluoroethyl)-4-(6-iodo-H-imidazo[1,2-A]pyridin-2-yl)-N-methylbenzeneamine, reference compound] as the molecule, how does the Ki read?
**A.** Its Ki is 31 ± 5 nM.

**Q.** Which Ki does the source give for `CN(CCCF)c1ccc(-c2cn3cc(I)ccc3n2)cc1` [Ligand L3, reference compound] here?
**A.** Its Ki is 41 ± 5 nM.

**Q.** Which Ki does the source give for `CN(C)c1ccc(-c2cn3cc(Br)ccc3n2)cc1` [Ligand L4] here?
**A.** Its Ki is 5.9 ± 0.4 nM.

**Q.** With `CN(C)c1ccc(-c2cn3cc(Cl)ccc3n2)cc1` [Ligand L5] as the molecule, how does the Ki read?
**A.** The Ki was 24.2 ± 5.6 nM.

**Q.** For `CN(C)c1ccc(-c2cn3cc(F)ccc3n2)cc1` [Ligand L6, 4-(6-fluoro-H-imidazo[1,2-a]pyridin-2-yl)-N,N-dimethylbenzenamine], which Ki is on record?
**A.** The Ki was 13 ± 1.6 nM.

**Q.** With `CN(C)c1ccc(-c2cn3cc([N+](=O)[O-])ccc3n2)cc1` [Ligand L7, N,N-dimethyl-4-(6-nitro-H-imidazo[1,2-a]pyridin-2-yl)benzenamine] as the molecule, how does the Ki read?
**A.** The Ki was 7.6 ± 0.7 nM.

**Q.** With `CN(C)c1ccc(-c2cn3cc(C#N)ccc3n2)cc1` [Ligand L8, 2-(4-(dimethylamino)phenyl)-H-imidazo[1,2-a]pyridine-6-carbonitrile] as the molecule, how does the Ki read?
**A.** Its Ki is 8.2 ± 1 nM.

**Q.** For `COc1ccc2nc(-c3ccc(N(C)C)cc3)cn2c1` [Ligand L9, 4-(6-methoxy-H-imidazo[1,2-a]pyridin-2-yl)-N,N-dlmethylbenzenamine], which Ki is on record?
**A.** The Ki was 38.5 ± 5 nM.

**Q.** Which Ki does the source give for `CN(C)c1ccc(-c2cn3cc(O)ccc3n2)cc1` [Ligand L12, 2-(4-(dimethylamino)phenyl)-H-imidazo[1,2-a]pyridin-6-ol] here?
**A.** The Ki was 177 ± 31 nM.

**Q.** Which Ki does the source give for `CN(C)c1ccc(-c2cc3c(I)cc(Br)cn3c2)cc1` [Ligand L13, 4-(6-bromo-8-iodoindolizin-2-yl)-N,N-dimethylbenzenamine] here?
**A.** Its Ki is 183 ± 61 nM.

**Q.** With `CN(C)c1ccc(-c2cc3c(C#N)cc(Br)cn3c2)cc1` [Ligand L14, 6-bromo-2-(4-(dimethylamino)phenyl)indolizine-8-carbonitrile] as the molecule, how does the Ki read?
**A.** Its Ki is greater than 180 nM.

**Q.** With `CNc1ccc(-c2cn3cc(Br)ccc3n2)cc1Br` [Ligand L18, 2-bromo-4-(6-bromo-H-imidazo[1,2-a]pyridin-2-yl)-N-methylbenzenamine] as the molecule, how does the Ki read?
**A.** Its Ki is 7.4 ± 0.6 nM.

**Q.** Which Ki does the source give for `Cc1cc(-c2cn3cc(Br)ccc3n2)ccc1N` [Ligand L20, 4-(6-bromo-H-imidazo[1,2-a]pyridin-2-yl)-2-methylbenzenamine] here?
**A.** The Ki was 658 ± 47 nM.

**Q.** With `CNc1ccc(-c2cn3cc(SCC(N)=O)ccc3n2)cc1` [Ligand T1, 2-(2-(4(methylamino)pheny)-H-imidazo[1,2-a]pyridin-6-ylthio)acetamide] as the molecule, how does the Ki read?
**A.** Its Ki is 1840 ± 497 nM.

**Q.** For `CN(C)c1ccc(-c2cn3cc(SCC(N)=O)ccc3n2)cc1` [Ligand T2, 2-(2-(4-(dimethylamino)phenyl)-H-imidazo[1,2-a]pyridin-6-ylthio)acetamide], which Ki is on record?
**A.** Its Ki is 391 ± 76 nM.

**Q.** Which Ki does the source give for `CNc1ccc(-c2cn3cc(SCCO)ccc3n2)cc1` [Ligand T3, 2-(2-(4-(methylamino)phenyl)-H-imidazo[1,2-a]pyridin-6-ylthio)ethanol] here?
**A.** The Ki was 645 ± 75 nM.

**Q.** With `CN(C)c1ccc(-c2cn3cc(SCCO)ccc3n2)cc1` [Ligand T4, 2-(2-(4-(dimethylamino)phenyl)-H-imidazo[1,2-a]pyridin-6-ylthio)ethanol] as the molecule, how does the Ki read?
**A.** The Ki was 88 ± 6 nM.

**Q.** Which Ki does the source give for `COc1ccc(CSc2ccc3nc(-c4ccc(N(C)C)cc4)cn3c2)cc1` [Ligand T5, 4-(6-(4-methoxybenzylthio)-H-imidazo[1,2-a]pyridin-2-yl)-N,N-dimethylbenzenamine] here?
**A.** Its Ki is 8.3 ± 1.8 nM.

**Q.** Which Ki does the source give for `CSc1ccc2nc(-c3ccc(N(C)C)cc3)cn2c1` [Ligand T6, N,N-dimethyl-4-(6-(methylthio)-H-imidazo[1,2-a]pyridin-2-yl)benzenamine] here?
**A.** Its Ki is 7.9 ± 0.6 nM.

**Q.** Which Ki does the source give for `CCSc1ccc2nc(-c3ccc(N(C)C)cc3)cn2c1` [Ligand T7, 4-(6-(ethylthio)-H-imidazo[1,2-a]pyridin-2-yl)-N,N-dimethylbenzenamine] here?
**A.** The Ki was 8.3 ± 0.5 nM.

same assay, conditions: [3H]6-OH-BTA-1 as reference radioligand; isolated human AD amyloid plaques; Table 5

**Q.** Which Ki does the source give for `CN(C)c1ccc(-c2cn3cc(Cl)ncc3n2)cc1` [Ligand L21, 4-(6-chloroimidazo[1,2-a]pyrazin-2-yl)-N,N-dimethylbenzenamine] here?
**A.** The Ki was 88 ± 22 nM.

**Q.** With `CN(C)c1ccc(-c2cn3cc(Cl)cnc3n2)cc1` [Ligand L22, 4-(6-chloroimidazo[1,2-a]pyrimidin-2-yl)-N,N-dimethylbenzenamine] as the molecule, how does the Ki read?
**A.** Its Ki is 147 ± 20 nM.

**Q.** For `CN(C)c1ccc(-c2nc3ccc(SCCO)cc3s2)cc1` [Ligand P1], which Ki is on record?
**A.** Its Ki is 5.7 ± 0.7 nM.

same assay, conditions: discussion of the Table 4 Ki values

**Q.** With `CN(C)c1ccc(-c2cn3cc(O)ccc3n2)cc1` [Ligand L12, 2-(4-(dimethylamino)phenyl)-H-imidazo[1,2-a]pyridin-6-ol] as the molecule, how does the “binding affinity (in words)” value read?
**A.** Its value is “abolishes all binding affinity”.

**Q.** Which “binding affinity (in words)” value does the source give for `CN(C)c1ccc(-c2cc3c(C#N)cc(Br)cn3c2)cc1` [Ligand L14, 6-bromo-2-(4-(dimethylamino)phenyl)indolizine-8-carbonitrile] here?
**A.** Its value is “completely removes the binding affinity”.

same assay, conditions: displacement of [3H]6-OH-BTA-1 from isolated amyloid plaques

**Q.** For `CNc1ccc(-c2nc3ccc(O)cc3s2)cc1` [PIB, 6-hydroxy-2-(4′-methylaminophenyl)benzothiazole, reference compound], which “displacement of reference radioligand” value is on record?
**A.** The value was greater than 95%.

test system: not given; test: not given; settings: not given

**Q.** For `CN(C)c1ccc(-c2cn3cc(Cl)ccc3n2)cc1` [Ligand L5], which melting point is on record?
**A.** Its melting point is 234 to 236 °C.

**Q.** With `CN(C)c1ccc(-c2cn3cc(C#N)ccc3n2)cc1` [Ligand L8, 2-(4-(dimethylamino)phenyl)-H-imidazo[1,2-a]pyridine-6-carbonitrile] as the molecule, how does the melting point read?
**A.** Its melting point is 269 to 271 °C.

**Q.** With `CC(=O)N(C)c1ccc(-c2cc3ccc(Br)cn3c2)cc1C` [Ligand L16, N-(4-(6-bromoindolizin-2-yl)-2-methylphenyl)-N-methylacetamide] as the molecule, how does the melting point read?
**A.** Its melting point is 197 to 198 °C.

**Q.** For `CCSc1ccc2nc(-c3ccc(N(C)C)cc3)cn2c1` [Ligand T7, 4-(6-(ethylthio)-H-imidazo[1,2-a]pyridin-2-yl)-N,N-dimethylbenzenamine], which melting point is on record?
**A.** The melting point was 168 to 171 °C.
